Data published in article PMC9822769, “The Strange Case: The Unsymmetric Cisplatin-Based Pt(IV) Prodrug [Pt(CH3COO)Cl2(NH3)2(OH)] Exhibits Higher Cytotoxic Activity with respect to Its Symmetric Congeners due to Carrier-Mediated Cellular Uptake” (Bioinorganic Chemistry and Applications, 2022).

How the values were obtained:
MM98 = test: Resazurin reduction cell viability assay, MM98; assay type: cell-based, human; conditions: 72 h of treatment; mean ± sd
Experimental: (§1) The compounds under investigation were tested on a panel of commercial human cancer cell lines: ovarian endometrioid adenocarcinoma A2780 (ICLC HTL98008), its cisplatin-resistant variant A2780cisR (ECACC 93112517), colon carcinoma HCT 116 (ECACC 91091005), breast invasive ductal carcinoma MCF7 (ECACC 86012803), embryonal carcinoma NTERA-2 clone D1 (also known as NT2/D1, ICLC HTL97025), and lung adenocarcinoma A549 (ICLC HTL03001). Furthermore, a cell line derived from the pleural effusion of a patient with untreated malignant pleural mesothelioma (MPM) was added to the panel, namely, MM98 (sarcomatoid phenotype). Commercial cells were purchased from the European Collection of Authenticated Cell Cultures (ECACC, UK) or the Interlab Cell Line Collection (ICLC, Genoa, Italy), while the MM98 cell line was obtained from the Pathology Unit of the National Hospital of Alessandria (Italy).
(§2) The following media were used to grow the cells: RPMI 1640 (for A2780, A2780cisR, NT2/D1, and A549 cells), DMEM (for MCF7 cells), DMEM supplemented with nonessential amino acids (for MM98 cells), and McCoy's 5A (for HCT 116 cells). All media contained L-glutamine (2 mM) and were added with penicillin (100 IU·mL^−1), streptomycin (100 mg·L^−1), and 10% heat inactivated FBS. To maintain resistance in A2780cisR cells, cisplatin (1 μM) was added to the medium every two passages.
(§3) Continuous treatments (CT) were carried out at 37°C in a humidified chamber with 5% CO2. Cisplatin was dissolved in a 0.9% w/v NaCl aqueous solution and brought to pH = 3 with HCl (final stock concentration 1 mM). The Pt(IV) Complexes 1–3 were dissolved in milliQ water (final stock concentration 5 mM) and stored at −20°C. The stock concentration was confirmed with inductively coupled plasma-mass spectrometry (ICP-MS) measurements. The mother solutions were diluted in a complete medium to the required concentration.
(§4) To assess the growth inhibition of the compounds under investigation, a cell viability test (i.e., the resazurin reduction assay) was used. […] At the end of the treatment (72 h), viability was evaluated with 100 μg·mL^−1 resazurin (Acros Chemicals, France) in a fresh medium for 1 h at 37°C, and the amount of the reduced product, resorufin, was measured by fluorescence (excitation λ = 535 nm, emission λ = 595 nm) with a Tecan Infinite F200Pro plate reader (Tecan, Austria). In each experiment, cells were challenged with drug candidates at different concentrations, and the final data were calculated from at least three replicates of the same experiment performed in triplicate. The fluorescence of 8 wells containing a medium without cells was used as a blank. Fluorescence data were normalized to 100% cell viability for nontreated cells. […]

[1] = parameters: method as in PMID 32296997; conditions: 37°C, ten-fold excess of ascorbic acid; cited from earlier work
A2780cisR = test: Resazurin reduction cell viability assay, A2780cisR; assay type: cell-based, human; conditions: for IC50: 72 h of treatment, cisplatin-resistant, mean ± sd; for resistance factor, RF = IC50 A2780cisR/IC50 A2780: 72 h, rounded to the nearest unity
Experimental: as §1, §2, §3
To assess the growth inhibition of the compounds under investigation, a cell viability test (i.e., the resazurin reduction assay) was used. In brief, 2–5 × 10^3 cells per well (depending on the cell line) were seeded in black sterile tissue culture-treated 96-well plates. At the end of the treatment (72 h), viability was evaluated with 100 μg·mL^−1 resazurin (Acros Chemicals, France) in a fresh medium for 1 h at 37°C, and the amount of the reduced product, resorufin, was measured by fluorescence (excitation λ = 535 nm, emission λ = 595 nm) with a Tecan Infinite F200Pro plate reader (Tecan, Austria). In each experiment, cells were challenged with drug candidates at different concentrations, and the final data were calculated from at least three replicates of the same experiment performed in triplicate. The fluorescence of 8 wells containing a medium without cells was used as a blank. Fluorescence data were normalized to 100% cell viability for nontreated cells. The half-inhibiting concentration (IC50), defined as the concentration of the drug that reduces cell viability by 50%, was obtained from the dose-response sigmoid using Origin Pro (version 8, Microcal Software Inc., Northampton, MA, USA).

[2] = RP-HPLC lipophilicity (log k′) on C18 column; assay type: physicochemical; conditions: 30% methanol/70% aqueous 15 mM formic acid
Experimental: Retention times, tR, were measured on two columns: (i) a standard C18 column (Phenomenex Phenosphere-NEXT, 250 × 4.6 mm, 5 μm) and (ii) an IAM.PC.DD.2 column (Regis, 10 cm × […], 10 μm packing 300 Å pore size), prepared by covalently bonding cell-membrane-forming phospholipids to silica. On (i), a chromatogram was performed for each complex (0.25 mM) in a fixed eluent composition (30% methanol/70% aqueous 15 mM formic acid; flow rate 0.5 mL·min^−1) using a Waters HPLC-MS instrument (equipped with an Alliance 2695 separation module, a 2487 dual lambda absorbance detector, and a 3100 mass detector). The UV-vis detector was set at 210 nm. In (ii), the mobile phase consisted of 20 mM ammonium acetate buffer at pH 6.9 and acetonitrile flowing at 1 mL·min^−1. The samples were dissolved in the mobile phase in a concentration range of 50–100 μg·mL^−1. An HPLC Varian ProStar instrument equipped with a 410 autosampler, a PDA 335 LC detector, and Galaxie Chromatography Data System Version 1.9.302.952 was used.
The different tRs were used to calculate log k′, which is the logarithm of the retention factor k′ = (tR − t0)/t0, where t0 is the column dead time (i.e., the tR of KCl or citric acid used as the internal reference for (i) and (ii), respectively).
The lipophilicity of a compound is commonly described by the octanol-water partition coefficient, log Po/w, which can be defined as the ratio of the concentration of the compound between the organic (n-octanol) and the aqueous phase. However, other faster methods, such as RP-HPLC, have often been used to evaluate lipophilicity instead of the shake-flask method. […] Therefore, the retention times (tR) of the complexes were determined on a C18 column using a 70/30 (% v/v) water/MeOH mixture as an eluent, and the data were expressed as log k′ (k′ = (tR − t0)/t0, where t0 is the column dead time of the column). The trend of the measured log k' was 3 > 2 > cisplatin > 1, as expected based on the structure of the complexes, the acetato ligand being more lipophilic than the hydroxido one (Table 1).

NT2-D1 = test: Resazurin reduction cell viability assay, NT2-D1; assay type: cell-based, human; conditions: 72 h of treatment; mean ± sd
Experimental: as §1, §2, §3, §4

HCT 116 = test: Resazurin reduction cell viability assay, HCT 116; assay type: cell-based, human; conditions: 72 h of treatment; mean ± sd
Experimental: as §1, §2, §3, §4

A549 = test: Resazurin reduction cell viability assay, A549; assay type: cell-based, human; conditions: 72 h of treatment; mean ± sd
Experimental: as §1, §2, §3, §4

[3] = Stability in cell culture medium (HPLC-MS); assay type: physicochemical; conditions: 72 h, 37°C, dark, RPMI 1640 + 10% FBS, 100 μM
Experimental: The stability in the solution of Complexes 1–3 (100 μM) was studied by aging the compounds for 72 h at 37°C in the dark in the same cell culture medium employed for the A2780 cell line (i.e., RPMI 1640 medium added with 10% fetal bovine serum, FBS). The area of the chromatographic peaks of the Pt complexes was monitored in HPLC-MS, using a 70 : 30 mixture of 15 mM aqueous HCOOH and CH3OH as the mobile phase (see Section 2.3, settings i), for further instrumental details). ESI mass spectra, recorded using cone and capillary voltages of +30 V (positive ion mode) and 2.70 kV, were used to confirm the identity of the species.

MCF-7 = test: Resazurin reduction cell viability assay, MCF-7; assay type: cell-based, human; conditions: 72 h of treatment; mean ± sd
Experimental: as §1, §2, §3, §4

Structure (SMILES) | IC50 (MM98) [µM] | t ½ [1] [min] | IC50 (A2780cisR) [µM] | Log k′ [2] | IC50 (NT2-D1) [nM] | IC50 (HCT 116) [µM] | IC50 (A549) [µM] | remaining intact, % of the original HPLC peak [3] [%] | IC50 (MCF-7) [µM] | resistance factor, RF = IC50 A2780cisR/IC50 A2780 (A2780cisR) | partial hydrolysis [3]
CC(=O)[O][Pt]([NH2])([NH2])([Cl])([Cl])[O]C(C)=O [Complex 3, (OC-6-33)-diamminedichloridodiacetatoplatinum(IV)] | > 100 | 528 | > 100 | −0.84 | 4300 ± 1130 | 55.3 ± 1.69 | 78 ± 17.7 | > 85 | > 100 |  | 
CC(=O)[O][Pt]([OH])([Cl])[Cl].N.N [Complex 2, (OC-6-44)-acetatodiamminedichloridohydroxidoplatinum(IV)] | 3.67 ± 1.32 | 20.5 | 1.02 ± 0.68 | −1.10 | 210 ± 80 | 1.46 ± 0.02 | 3.11 ± 0.74 |  | 8.86 ± 3.45 | 6 | approximately 40%
N.N.[OH][Pt]([OH])([Cl])[Cl] [Complex 1, (OC-6-33)-diamminedichloridodihydroxidoplatinum(IV)] | > 100 | 8.6 | 52.1 ± 3.48 | −1.50 | 1440 ± 160 | 22.9 ± 3.89 | 48.2 ± 27.7 | > 95 | 78.1 ± 5.6 | 14 | 
N.N.[Cl][Pt][Cl] [Cisplatin, (SP-4-2)-diamminedichloridoplatinum(II)] | 3.2 ± 1.02 |  | 6.22 ± 1.02 |  | 100 ± 40 | 2.3 ± 0.3 | 3.8 ± 0.7 |  | 6.46 ± 0.91 | 13 | 
